In the NIST ThermoML archive (doi:10.1016/j.jct.2007.04.011):
Numbers after ± are expanded uncertainties.

Assays:
[1] = xn = mol fraction of the nth substance listed; conditions: 101 kPa, Liquid, Small sample (50 mg) DSC
[2] = molar heat capacity at constant pressure; conditions: 101.33 kPa, Liquid
[3] = 298.15 K, 101.33 kPa, Liquid

OCCCCO [1,4-butanediol] + CCCCO
excess molar heat capacity [J/K/mol], [1]
Conditions	x1 = 0.0804	x1 = 0.1099	x1 = 0.1826	x1 = 0.2497	x1 = 0.3244	x1 = 0.5919
293.15 K	0.031 ± 0.15	0.095 ± 0.16	0.129 ± 0.16	0.127 ± 0.16	0.089 ± 0.16	0.005
298.15 K	–	0.096 ± 0.16	0.011	0.093 ± 0.16	0.016 ± 0.15	–
303.15 K	–	0.055 ± 0.16	–	0.025 ± 0.15	–	–

CC(O)CC(C)(C)O (stereo unspecified) [2-methyl-2,4-pentanediol]
Conditions	mass density [kg/m3]	molar heat capacity at constant pressure [J/K/mol]
[2], 298.15 K	–	263.09 ± 2
[2], 303.15 K	–	267.1 ± 2.1
[2], 308.15 K	–	271.31 ± 2.1
[2], 313.15 K	–	275.53 ± 2.1
[2], 318.15 K	–	279.94 ± 2.2
[2], 323.15 K	–	284.5 ± 2.2
[2], 328.15 K	–	289.17 ± 2.2
[2], 333.15 K	–	293.9 ± 2.3
[2], 338.15 K	–	298.68 ± 2.3
[2], 343.15 K	–	303.35 ± 2.4
[2], 353.15 K	–	313.68 ± 2.4
[3], Vibrating tube method	918.22 ± 0.3	–

CC(O)C(C)O (stereo unspecified) [2,3-butanediol]
[2]
Conditions	molar heat capacity at constant pressure [J/K/mol]
298.15 K	236.67 ± 2
303.15 K	239.28 ± 2.1
308.15 K	241.85 ± 2.1
313.15 K	244.35 ± 2.1
318.15 K	246.82 ± 2.1
323.15 K	249.23 ± 2.2
328.15 K	251.6 ± 2.2
333.15 K	253.91 ± 2.2
338.15 K	256.17 ± 2.2
343.15 K	258.39 ± 2.2
348.15 K	260.55 ± 2.3
353.15 K	262.67 ± 2.3

Conditions	mass density [kg/m3]
[3]	1000.4 ± 0.5

CCC(O)CO (stereo unspecified) [1,2-butanediol]
[2]
Conditions	molar heat capacity at constant pressure [J/K/mol]
288.15 K	225.51 ± 1.9
293.15 K	228.22 ± 2
298.15 K	230.94 ± 2
303.15 K	233.64 ± 2
308.15 K	236.32 ± 2
313.15 K	238.97 ± 2.1
318.15 K	241.59 ± 2.1
323.15 K	244.18 ± 2.1
328.15 K	246.72 ± 2.1
333.15 K	249.2 ± 2.2
338.15 K	251.63 ± 2.2
343.15 K	254 ± 2.2
348.15 K	256.29 ± 2.2
353.15 K	258.5 ± 2.2
358.15 K	260.63 ± 2.3

Conditions	mass density [kg/m3]
[3]	998.408 ± 0.5

CCCCO [butan-1-ol]
[2]
Conditions	molar heat capacity at constant pressure [J/K/mol]
293.15 K	173.8 ± 1.5
298.15 K	177.1 ± 1.5
303.15 K	180.61 ± 1.6
308.15 K	184.28 ± 1.6
313.15 K	188.02 ± 1.6
318.15 K	192.1 ± 1.7
323.15 K	196.13 ± 1.7
328.15 K	200.4 ± 1.7
333.15 K	204.72 ± 1.8
338.15 K	209.16 ± 1.8
343.15 K	213.57 ± 1.9
348.15 K	218.1 ± 1.9
353.15 K	222.54 ± 1.9

Conditions	mass density [kg/m3]
[3]	805.77 ± 0.29

OCCCCO [1,4-butanediol]
[2]
Conditions	molar heat capacity at constant pressure [J/K/mol]
293.15 K	200.39 ± 1.7
298.15 K	203.06 ± 1.8
303.15 K	205.82 ± 1.8
308.15 K	208.65 ± 1.8
313.15 K	211.57 ± 1.8
318.15 K	214.55 ± 1.9
323.15 K	217.61 ± 1.9
328.15 K	220.72 ± 1.9
333.15 K	223.9 ± 1.9
338.15 K	227.12 ± 2
343.15 K	230.4 ± 2
348.15 K	233.72 ± 2
353.15 K	237.07 ± 2

Conditions	mass density [kg/m3]
[3]	1012.75 ± 0.54
